Among the data in PubChem BioAssay (NCI) are TGI and GI50 values, retold here.

What all share (test): NCI anticancer screen, dose series, 48 h
In assay [1] the test system is ACHN renal.
Assay [2] deals with CAKI-1 renal.
For assay [3], the system named is EKVX NSCLC.
For assay [4], the system named is HCC-2998 colon.
The test system of assay [5] is HOP-92 NSCLC.
For assay [6], the system named is LOX IMVI melanoma.
The subject of assay [7] is OVCAR-4 ovarian.
Assay [8] concerns OVCAR-8 ovarian.
For assay [9], the system named is SR leukemia.
Assay [10] concerns PC-3 prostate.

Each structure is given as a SMILES string.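 Assay format: 96-well plates, 48-hour exposure. The concentration for 50% growth inhibition is given as GI50. TGI marks complete inhibition of growth.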

Turning to `COc1cc(/C=C/C(=N\NC(=O)c2ccccc2)c2sc(Nc3ccc(Cl)c(Cl)c3)nc2C)ccc1O`, the TGI was 87.2 µM in assay [1]; over 100 µM in assay [2]; over 100 µM in assay [3]; 91.8 µM in [4]; 16.3 µM in assay [5]; 44.9 µM in assay [6]. Also, the TGI in assay [7] is over 100 µM; in assay [8], over 100 µM; in assay [9], 62.3 µM.

With `CNC(=O)c1cn(C[C@H](F)CCc2ccc(NC(=O)Cc3cc(OC4CC(F)(F)C4)cc(C)n3)nn2)nn1`, the GI50 in assay [1] was over 100 µM; in assay [3], over 100 µM; in assay [4], over 100 µM; in assay [5], 23 µM; in assay [6], over 100 µM; in assay [7], over 100 µM. The GI50 was over 100 µM in assay [8], over 100 µM in assay [10] and over 81.8 µM in assay [9]. For the same molecule, the TGI in assay [1], in assay [3], in assay [4], in assay [5], in [6] and in assay [7] was over 100 µM throughout. Moreover, the TGI in assay [8], in [10] and in [9] was over 100 µM in each case.

As for `NS(=O)(=O)c1ccc(NC(=O)c2cccc3c(=O)c4ccccc4[nH]c23)cc1`, the TGI in assay [1], in assay [2], in [3], in [4], in [5] and in assay [6] was over 100 µM in each case. Further, the TGI in assay [7], in assay [8] and in [9] was over 100 µM each time.

Take `CC1(C)CCc2cc3c(cc2O1)OCCC3=O`: the TGI in assay [1], in assay [2], in [3], in assay [4], in assay [5] and in assay [6] was over 100 µM each time. Moreover, the TGI in assay [7], in assay [8] and in [9] was over 100 µM in each case.

In the case of `FC(F)(F)c1ccc2c(Nc3cccc(C4CC(c5ccccc5)=NN4c4ccc(Cl)cc4)c3)ccnc2c1` (configuration not stated), the GI50 in assay [1] is 2.9 µM; in assay [3], 10.9 µM; in assay [4], 1.96 µM; in [5], 3.21 µM; in assay [6], 1.68 µM; in assay [7], 4.99 µM. For the same molecule, the GI50 was 3.57 µM in assay [8], 3.77 µM in [10] and 1.26 µM in [9]. The TGI stood at 11.1 µM in [1]; 59.5 µM in assay [3]; 4.01 µM in assay [4]; 40.5 µM in [5]; 3.81 µM in assay [6]; 28.9 µM in assay [7]. Further, the TGI in assay [8] came to 19.7 µM; in [10] it was 16.6 µM; in assay [9] it was 9.41 µM.

For the molecule `Nc1ccc(SC23CC4CC(CC(C4)C2)C3)cc1`, the TGI in assay [1], in assay [2], in assay [3], in assay [4], in [6] and in [8] was over 100 µM each time. For the same molecule, the TGI in assay [10] and in assay [9] was over 100 µM throughout.

In the case of `COc1cc(/C=C2\CC3C4CC=C5CC(N6CCCC6)CC[C@]5(C)C4CC[C@]3(C)C2OC(C)=O)ccc1OCCN1CCCC1` (some centres not stated), the GI50 in assay [1] is 1.73 µM; in [2] it was 1.55 µM; in [3] it was 3.41 µM; in assay [6] it was 1.27 µM; in [7] it was 2.41 µM; in [10], 3.45 µM. Moreover, the GI50 in assay [9] was 1.83 µM. The TGI in assay [1] came to 3.22 µM; in [2], 3.93 µM; in assay [3], 13.4 µM; in [6], 2.6 µM; in assay [7], 5.74 µM; in [10], 10.2 µM. This molecule registered a TGI in assay [9] of 4.01 µM.

Take `O=c1c2ccccc2c2c3c1cccc3c1cccc3c(=O)c4ccccc4c2c31`: the TGI in [1], in [2], in [3], in assay [4], in [5] and in assay [6] was over 100 µM in each case. Moreover, the TGI in assay [7], in assay [8] and in assay [9] was over 100 µM each time.

Turning to `Cn1c(N)nc2c(nc(OCc3ccccc3)n2C2OC(CO)C(O)C2O)c1=O` (configuration not stated), the TGI in [1], in assay [2], in [3], in assay [5], in assay [6] and in assay [7] was over 100 µM in each case. The TGI in assay [8], in [10] and in assay [9] was over 100 µM throughout.

For `CC1=Nc2c(ccc3c2C(=O)c2ccccc2C3=O)NC(c2ccncc2)C1` (configuration not stated), the GI50 in assay [1] is 23.5 µM; in assay [2], 3.77 µM; in [3], over 100 µM; in [4] it was over 100 µM; in assay [5] it was over 100 µM; in [7], over 100 µM. Besides, the GI50 in assay [8] and in assay [9] was over 100 µM throughout. The TGI in assay [1], in assay [2], in [3], in assay [4], in [5] and in [6] was over 100 µM throughout. Further, the TGI in assay [7] and in assay [8] was over 100 µM each time.

For `CCCS(=O)(=O)c1nc(NC2CC2)cc(-c2ccc3c(ccn3C3CC(C)(C)NC(C)(C)C3)c2)n1`, the GI50 was 1.77 µM in [1]; 1.56 µM in [2]; 1.84 µM in assay [3]; 1.46 µM in [5]; 1.67 µM in assay [6]; 1.78 µM in [10]. Further, the GI50 in assay [9] was 0.256 µM. The TGI in assay [1] came to 3.35 µM; in assay [2], 3.05 µM; in [3] it was 3.71 µM; in [5] it was 3.08 µM; in assay [6], 3.17 µM; in [10], 3.47 µM. In [9], this molecule showed a TGI of 0.784 µM.

`Cc1ccc(C(=O)CC(Sc2cccc(Cl)c2Cl)c2ccc(Cl)cc2)cc1C` (configuration not stated): the GI50 in assay [2] is 21.6 µM; in assay [3], 21.6 µM; in [6], 13.5 µM; in [7], 34.5 µM; in assay [8], 24.6 µM; in [10] it was 15.8 µM. Further, the GI50 in assay [9] was 7.23 µM. The TGI in [2] is 45.8 µM; in assay [3], 42.1 µM; in [6], 32.2 µM; in assay [7] it was over 100 µM; in [8], 74 µM; in [10], 29.2 µM. The TGI in [9] is over 100 µM.

In the case of `O=C1N[C@@H](O)[C@@H]2ON=C(c3ccccc3)[C@H]12`, the TGI in assay [1], in assay [2], in assay [3], in [4], in [5] and in assay [6] was over 100 µM throughout. For the same molecule, the TGI in assay [7], in assay [8] and in assay [9] was over 100 µM in each case.

As for `Cc1ccc2/c(=C/c3ccc(N(C)C)cc3)c3cc(-c4ccccc4)[n+](C)n3c2c1`, the GI50 in [1] was 0.175 µM; in assay [2], 1.57 µM; in [3], 0.0643 µM; in assay [4], under 0.0199 µM; in assay [6], under 0.01 µM; in assay [7], 0.816 µM. Moreover, the GI50 in assay [10] was 0.0251 µM; in [9] it was under 0.01 µM. For the same molecule, the TGI in assay [2] was 6.58 µM; in assay [3], 7.95 µM; in assay [4], 0.197 µM; in assay [6], over 100 µM; in [7], 20.2 µM; in assay [10] it was 3.9 µM.

Regarding `CC(C)(C)C1(O)Cc2ccccc2C(=O)O1` (configuration not stated), the TGI in assay [1], in [2], in assay [3], in [4], in assay [5] and in assay [6] was over 100 µM throughout. Further, the TGI in [7], in assay [8] and in assay [9] was over 100 µM in each case.

Turning to `Oc1c(Br)cc(CN(Cc2cc(Br)c(O)c(Br)c2)C2CCCCC2)cc1Br`, the TGI in assay [1], in assay [2], in assay [3], in assay [5], in [6] and in [7] was over 100 µM in each case. Also, the TGI in assay [8], in assay [10] and in [9] was over 100 µM each time.

On to `COc1ccc(C2C(N)=NCC2c2ccccn2)cc1` (configuration not stated), for which the TGI in assay [1], in assay [2], in assay [3], in [4], in [5] and in assay [6] was over 100 µM each time. The TGI in assay [7], in assay [8] and in [9] was over 100 µM in each case.
